Source: publication PMC10914316 (Biochemistry, 2023)
Read-outs that look alike come from different tables or passages of the source.

Legend:
[1] = target: T1, ArnA_DH (Escherichia coli, UniProt P77398); conditions: for Tm (melting temperature of ArnA_DH with ligand): no ligand Tm = 318.4 ± 0.03 K
[2] = target: T1, ArnA_DH; assay: biochemical
[3] = target: T2, ArnA_DH_N492A (Escherichia coli, UniProt P77398, N492A); assay: Thermal stability shift assay for ligand binding to N492A mutant
T2 sequence (P77398 314-660 N492A): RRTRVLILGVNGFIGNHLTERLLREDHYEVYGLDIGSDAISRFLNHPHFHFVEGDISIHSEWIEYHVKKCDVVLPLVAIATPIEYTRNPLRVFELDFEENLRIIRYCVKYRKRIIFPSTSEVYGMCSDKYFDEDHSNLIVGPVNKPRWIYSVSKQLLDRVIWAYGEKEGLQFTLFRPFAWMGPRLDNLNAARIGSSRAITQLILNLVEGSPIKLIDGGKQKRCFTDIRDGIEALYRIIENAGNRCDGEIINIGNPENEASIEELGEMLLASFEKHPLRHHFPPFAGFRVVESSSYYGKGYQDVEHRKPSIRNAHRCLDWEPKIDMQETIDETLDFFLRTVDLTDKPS

[4] = target: T2, ArnA_DH_N492A; assay: NADH binding; type: biochemical; conditions: concentrations as high as 10 mM

| Compound | ligand binding by thermal stability shift assay ([1]; 1 mM and 10 mM ligand) | Tm (melting temperature of ArnA_DH with ligand) ([1]; 1 mM ligand) | Tm (melting temperature of ArnA_DH with ligand) ([1]; 10 mM ligand) | Kd [2] | Kd [3] | UDP-GlcA-induced conformational change of ArnA_DH_N492A (intrinsic NADH fluorescence) [4] |
| --- | --- | --- | --- | --- | --- | --- |
| O=C(O)[C@H]1O[C@H](OP(=O)(O)O)[C@H](O)[C@@H](O)[C@@H]1O [GlcA-1P, glucuronic acid-1-phosphate] | undetectable | 318.9 ± 0.02 K | 318.4 ± 0.03 K | – | – | – |
| O=c1ccn([C@@H]2O[C@H](COP(=O)(O)OP(=O)(O)O[C@H]3OC[C@@H](O)[C@H](O)[C@H]3O)[C@@H](O)[C@H]2O)c(=O)[nH]1 [UDP-xylose] | – | 320.0 ± 0.03 K | – | 633 ± 116 µM | – | – |
| O=c1ccn([C@@H]2O[C@H](COP(=O)(O)O)[C@@H](O)[C@H]2O)c(=O)[nH]1 [UMP, uridine monophosphate] | – | 320.6 ± 0.02 K | – | 594 ± 135 µM | – | – |
| O=C(O)[C@H]1O[C@H](OP(=O)(O)OP(=O)(O)OC[C@H]2O[C@@H](n3ccc(=O)[nH]c3=O)[C@H](O)[C@@H]2O)[C@H](O)[C@@H](O)[C@@H]1O [UDP-GlcA, UDP-glucuronic acid] | – | – | – | 22 ± 5 µM | 36 ± 7 µM | little change in the intrinsic NADH fluorescence |
